Usually IC50 stands for the point on the concentration scale where inhibition reaches its midpoint. Read a high IC50 as lower potency.

Molecules are shown by their SMILES.

For assay [1], the target named is Cyclin-dependent kinase 2/G1/S-specific cyclin-E1 (Homo sapiens, UniProt P24941). Put plainly: Biochemical CDK Inhibition Assay. The procedure: (§1) nhibitory effects of the compounds of the disclosure were measured in biochemical assays that measure the enzymatic phosphorylation activity of CDK enzyme in complex of Cyclin proteins phosphorylates 7.5 micromolar fluorescently labelled peptide substrate, 5-FAM-QSPKKG-CONH2, (FL-Peptide 18, Perkin Elmer, 760362) in the presence of adenosine-5′-triphosphate (ATP) and varying concentrations of the test compound in 100 mM 2-[4-(2-hydroxyethyl)piperazin-1-yl]ethanesulfonic acid (HEPES), pH 7.5, 10 mM MgCl2, 0.015% Brij-35, 1 mM dithiothreitol (DTT), 1.0% dimethylsulfoxide (DMSO). Assays were performed at 1.0 mM ATP or at ATP Km of the CDK enzymes in complex with Cyclin proteins. Reactions proceeded until between 10% to 20% total peptides were phosphorylated at room temperature (25° C.) and were terminated with 35 mM 2,2′,2″,2′″-(ethane-1,2-diyldinitrilo)tetraacetic acid (EDTA). Product was detected using the Caliper mobility shift detection method where the phosphorylated peptide (product) and substrate were electrophoretically separated and measured. Percent activity was plotted against log concentration of compound and points to generate an apparent IC50. The following CDK enzymes in complex with different cyclin proteins were used in these assays:CDK1/Cyclin B1, GST-tag (BPS, 40454), 1.5 nM used in the assayCDK2/Cyclin E (Eurofins, 14-475), 1.25 nM used in the assays

Assay [2] deals with Cyclin-dependent kinase/G2/mitotic-specific cyclin- 1 (Homo sapiens, UniProt P06493). Put plainly: Biochemical CDK Inhibition Assay. The procedure: as §1
Cyclin-dependent kinase/G2/mitotic-specific cyclin- 1, sequence (P06493 whole entry): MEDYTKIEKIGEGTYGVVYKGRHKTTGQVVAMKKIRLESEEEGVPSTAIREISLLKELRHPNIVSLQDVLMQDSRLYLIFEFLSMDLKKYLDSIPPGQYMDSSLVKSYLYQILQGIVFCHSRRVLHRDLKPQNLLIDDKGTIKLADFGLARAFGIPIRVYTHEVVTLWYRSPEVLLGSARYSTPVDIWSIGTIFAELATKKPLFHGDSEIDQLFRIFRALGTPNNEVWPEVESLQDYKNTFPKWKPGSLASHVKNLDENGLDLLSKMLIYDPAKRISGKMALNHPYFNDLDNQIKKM
Cyclin-dependent kinase/G2/mitotic-specific cyclin- 1, sequence (P14635 whole entry, further chain): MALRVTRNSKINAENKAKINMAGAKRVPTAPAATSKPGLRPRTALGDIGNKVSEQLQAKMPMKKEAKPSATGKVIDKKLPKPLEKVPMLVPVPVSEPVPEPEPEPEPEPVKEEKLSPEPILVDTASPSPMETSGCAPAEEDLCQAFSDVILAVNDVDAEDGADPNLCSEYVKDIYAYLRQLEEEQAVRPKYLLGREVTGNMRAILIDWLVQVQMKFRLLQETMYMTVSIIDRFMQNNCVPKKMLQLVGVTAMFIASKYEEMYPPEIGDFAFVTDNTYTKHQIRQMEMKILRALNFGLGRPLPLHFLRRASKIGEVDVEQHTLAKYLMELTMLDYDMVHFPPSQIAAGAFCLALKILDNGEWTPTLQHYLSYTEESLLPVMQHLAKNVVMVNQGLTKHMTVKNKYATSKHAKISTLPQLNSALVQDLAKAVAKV

As to `CC1(NC(=O)O[C@@H]2CC[C@H](c3cc(Nc4ccncn4)n[nH]3)C2)CC1` [US20250074895, Compound 39], the IC50 in assay [1] was less than 10 nM; in assay [2], 300 nM.

For `Cc1cncc(Nc2cc([C@H]3CC[C@@H](OC(=O)NC4(C)CC4)C3)[nH]n2)n1` [US20250074895, Compound 7], the half-maximal inhibitory concentration (IC50) is less than 10 nM in assay [1] and less than 100 nM in assay [2].

Take `CC1(NC(=O)O[C@@H]2CC[C@H](c3cc(Nc4ccnc(C#N)n4)n[nH]3)C2)CC1` [US20250074895, Compound 3]: the concentration for half-maximal inhibition (IC50) was less than 10 nM in assay [1] and less than 100 nM in assay [2].

As to `CC1(NC(=O)O[C@@H]2CC[C@H](c3cc(Nc4cc(C#N)ccn4)n[nH]3)C2)CC1` [US20250074895, Compound 2], the half-maximal inhibitory concentration (IC50) in assay [1] was less than 10 nM; in assay [2], less than 100 nM.

As for `COc1nccc(Nc2cc([C@@H]3CC[C@H](OC(=O)NC4(C)CC4)C3)[nH]n2)n1` [US20250074895, Compound 58], the IC50 in assay [1] is less than 10 nM; in assay [2], less than 100 nM.

Take `Cc1cnc(Nc2cc([C@H]3CC[C@@H](OC(=O)NC4(C)CC4)C3)[nH]n2)cn1` [US20250074895, Compound 27]: the figures for the IC50 in assay [1] and in assay [2] were less than 10 nM and 300 nM, respectively.

Consider `Cc1nc(C#N)cnc1Nc1cc([C@H]2CC[C@@H](OC(=O)NC3(C)CC3)C2)[nH]n1` [US20250074895, Compound 4], for which the results for the IC50 in assay [1] and in assay [2] were less than 10 nM and more than 500 nM, respectively.

Take `Cc1cc(C#N)cc(Nc2cc([C@H]3CC[C@@H](OC(=O)NC4(C)CC4)C3)[nH]n2)n1` [US20250074895, Compound 15]: the concentration for half-maximal inhibition (IC50) in assay [1] is less than 10 nM; in assay [2], less than 100 nM.

In the case of `C[C@@H](O)c1cnc(Nc2cc([C@H]3CC[C@@H](OC(=O)N4CCC4(C)C)C3)[nH]n2)cn1` [US20250074895, Compound 51], the results for the concentration for half-maximal inhibition (IC50) in assay [1] and in assay [2] were less than 10 nM and less than 100 nM, respectively.

In the case of `Cc1nccnc1Nc1cc([C@H]2CC[C@@H](OC(=O)NC3(C)CC3)C2)[nH]n1` [US20250074895, Compound 6], the IC50 in assay [1] is less than 10 nM; in assay [2], more than 500 nM.

For the molecule `CC1(NC(=O)O[C@@H]2CC[C@H](c3cc(Nc4ccc(C#N)cn4)n[nH]3)C2)CC1` [US20250074895, Compound 12], the values for the concentration for half-maximal inhibition (IC50) in assay [1] and in assay [2] were less than 10 nM and 300 nM, respectively.

These data come from BindingDB's records for patent US20250074895 (Blueprint Medicines, 2025).
